In article PMC8397297 (ACS Chemical Neuroscience, 2021):
Entries after “also recorded” stand apart in the source; their conditions may differ.

Columns and labels:
mGAT4 = biological target: T1, mGAT4 (Mus musculus, UniProt P31650); assay: [3H]GABA uptake assay in HEK-293 cells stably expressing mGAT4; assay type: cell-based; conditions: [3H]GABA uptake; read-out: pIC50 ± SEM mGAT4 (converted)
T1 construct: expressed in transfected cells; host or cells: HEK-293
T1 sequence (P31650 1-627): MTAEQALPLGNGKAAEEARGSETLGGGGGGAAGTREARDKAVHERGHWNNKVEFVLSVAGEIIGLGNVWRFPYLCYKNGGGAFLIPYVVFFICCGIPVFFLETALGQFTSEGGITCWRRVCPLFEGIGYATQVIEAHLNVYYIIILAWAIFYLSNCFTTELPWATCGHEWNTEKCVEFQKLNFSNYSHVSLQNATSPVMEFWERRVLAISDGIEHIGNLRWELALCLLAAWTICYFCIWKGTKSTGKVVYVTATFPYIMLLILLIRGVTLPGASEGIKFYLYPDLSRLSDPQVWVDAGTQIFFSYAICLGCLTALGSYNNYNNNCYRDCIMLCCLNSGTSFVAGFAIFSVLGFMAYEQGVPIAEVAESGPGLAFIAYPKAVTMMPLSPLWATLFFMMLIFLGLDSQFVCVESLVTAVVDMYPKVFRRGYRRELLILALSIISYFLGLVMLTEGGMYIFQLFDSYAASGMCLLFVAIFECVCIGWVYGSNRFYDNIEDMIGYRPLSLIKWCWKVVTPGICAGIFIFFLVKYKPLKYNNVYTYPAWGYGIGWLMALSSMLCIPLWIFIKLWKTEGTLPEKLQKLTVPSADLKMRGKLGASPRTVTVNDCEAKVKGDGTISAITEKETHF

mGAT1 = biological target: T2, mGAT1 (Mus musculus, UniProt P31648); assay: competitive MS binding assay with NO711 as unlabeled marker (LC-ESI-MS/MS); conditions: for remaining NO711 binding mGAT1: in the presence of 100 μM inhibitor
T2 construct: expressed in transfected cells; host or cells: HEK-293
How it was run: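 Competitive MS binding with unlabeled NO711 as marker, quantified by LC–ESI-MS/MS. Compounds screened at 100 μM for inhibition of marker binding.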

HEK-293 cells = assay: HEK-293 cytotoxicity assay (MTS); assay type: cell-based, human; conditions: for concentration with significant (p < 0.0001) decrease in HEK-293 cell viability: 72 h of incubation; for concentration of observed antiproliferative effects: summary of HepG2 and HEK-293 assays
Method: Subsequently, a similar study was performed with the HEK-293 cell line.
Hepatotoxicity and cytotoxicity were estimated according to previously described protocols[62] using the hepatoma HepG2 (ATCC HB-8065) and human embryonic kidney HEK-293 (ATCC CRL1573) cell lines, respectively. In brief, cells were seeded in 96-well plates at a density of 0.7 × 10^4 and cultured at 37 °C in an atmosphere containing 5% CO2. Next, the compounds were added and investigated in quadruplicate at concentrations ranging from 0.1 to 100 μM for 72 h. The antiproliferative drug DX was used as the reference. The CellTiter 96 AQueous nonradioactive cell proliferation assay (MTS) purchased from Promega (Madison, WI, USA) was used for the determination of cell viability. The absorbance at 492 nm was measured using an EnSpire microplate reader (PerkinElmer, Waltham, MA, USA).

oxaliplatin-treated mice [1] = assay: oxaliplatin-induced peripheral neuropathy, tactile allodynia (von Frey test); assay type: in vivo, mouse
Method: (§1) Before the in vivo tests, the test compounds were suspended in 1% Tween 80 (Baxter, Poland). The compounds were then administered intraperitoneally. […] The test compounds were administered only once daily on days 1 and 7 of oxaliplatin- or paclitaxel-induced neuropathy. In STZ-treated mice, test compounds were administered 21 days after STZ injection. Control mice used in oxaliplatin and paclitaxel NP models were injected with an appropriate amount of vehicle (0.9% saline). Oxaliplatin was purchased from Activate Scientific GmbH (Germany). Paclitaxel and STZ were purchased from Sigma-Aldrich (Poland).
(§2) For pain studies, oxaliplatin was dissolved in 5% glucose solution (Polfa Kutno, Poland). The dose of oxaliplatin used to induce peripheral neuropathy (10 mg/kg, intraperitoneal injection) was chosen on the basis of previous research[63],[64] and available literature data.[65]
The ability of the test compounds to attenuate tactile allodynia caused by oxaliplatin, paclitaxel, and STZ was assessed using the von Frey test. For this purpose, 3 h after oxaliplatin or paclitaxel and 21 days after STZ injection, the predrug paw withdrawal threshold was measured for each mouse. Then, the test compounds were administered, and 1 h later, the postdrug paw withdrawal threshold was collected for each animal. This part of the experiment aimed to establish the effect of treatment on early phase (acute) pain hypersensitivity induced by cytotoxic drugs. Additionally, in the oxaliplatin model and the paclitaxel model, to assess the effect of test compounds on late phase tactile allodynia, 7 days later, measurements of the predrug and postdrug paw withdrawal thresholds were made in a similar manner to the measurements performed during early phase neuropathy. At this stage of the experiment, there was no additional oxaliplatin/paclitaxel administration.
An electronic von Frey unit (Bioseb, France) was used to assess the mechanical nociceptive threshold (tactile allodynia) in mice. This device has a single flexible filament that applies increasing force (from 0 to 10 g) against the plantar surface of the hind paw of each mouse. In the von Frey test, the paw withdrawal response of the animals automatically turns off the stimulus, and the mechanical pressure that evokes this response is recorded. On the day of the experiment, the mice were placed individually in test compartments with a wire mesh bottom and left there for 1 h of habituation. Subsequently, to obtain baseline values, each mouse was tested 3 times alternately in each hind paw. Then, the test compounds were administered, and 1 h later, 3 additional measurements were taken and averaged to obtain the mean postdrug values for each mouse.[69]

oxaliplatin-treated mice [2] = assay: oxaliplatin-induced peripheral neuropathy, cold hyperalgesia (cold plate test); assay type: in vivo, mouse
Method: as §1, §2
A cold plate apparatus (hot/cold plate, Bioseb, France) set at 2.5 °C was used to assess the effect of treatment on cold hyperalgesia in oxaliplatin-treated mice. The cold plate test was conducted immediately after the von Frey test. Three hours after oxaliplatin administration, the animals were placed on a cold plate apparatus, and predrug latencies to pain reaction (i.e., lifting, biting, shaking of hind paws, jumping, movement deficits, or writhing response) were collected. Finally, the test compounds were injected, and 1 h later, the postdrug latencies to pain reaction were measured.

[3] = early (acute) phase of oxaliplatin-induced neuropathy, i.p., 50a and 56a at both doses (10 and 30 mg/kg)
[4] = early phase of oxaliplatin-induced neuropathy, i.p.

IC50 (mGAT4) [µM]	remaining NO711 binding mGAT1 (mGAT1)	Ki (mGAT1; MS binding assay, read-out: pKi ± SEM mGAT1 (converted)) [µM]	SMILES	concentration with significant (p < 0.0001) decrease in HEK-293 cell viability (HEK-293 cells) [µM]	concentration of observed antiproliferative effects (HEK-293 cells) [µM]	effect on mechanical nociceptive threshold (tactile allodynia), von Frey test (oxaliplatin-treated mice [1]; [3])	effect on cold hyperalgesia, cold plate test (oxaliplatin-treated mice [2]; [4])	safety profile in HEK-293 cells (HEK-293 cells; 72 h, compared with HepG2)	effect on mechanical nociceptive threshold (tactile allodynia), von Frey test (oxaliplatin-treated mice [1]; late phase (7 days after oxaliplatin), 10 mg/kg i.p., 10 mg/kg)	effect on cold hyperalgesia, cold plate test (oxaliplatin-treated mice [2]; early (acute) phase of oxaliplatin-induced neuropathy, 30 mg/kg i.p., 30 mg/kg)
4.37	100 μM: 69%		Cc1ccc(CNC(=O)[C@@H](C[C@@H](C)O)N(C)CCC=C2c3ccccc3CCc3ccccc32)cc1 (relative stereo) [Compound 2RS,4RS-39c, 2-((3-(10,11-Dihydro-5H-dibenzo[a,d][7]annulen-5-ylidene)propyl)(methyl)amino)-4-hydroxy-N-(4-methylbenzyl)pentanamide]	25	25	not effective	not effective			
20.4		33.1	CN(CCON=C(c1ccccc1)c1ccccc1)C(CCN)C(=O)NCc1ccccc1Cl (stereo not shown) [Compound 50a, 4-Amino-N-[(2-chlorophenyl)methyl]-2-[(2-{[(diphenylmethylidene)amino]oxy}ethyl)(methyl)amino]butanamide]		1	significantly elevated the pain threshold for mechanical stimulation; also recorded: showed antiallodynic properties	not effective	comparable safety profile in HEK-293 and HepG2 cells		
9.12	100 μM: 68%		CN(CCC=C1c2ccccc2CCc2ccccc21)C(CO)C(=O)NCc1ccccc1 (stereo not shown) [Compound 56a, N-Benzyl-2-((3-(10,11-dihydro-5H-dibenzo[a,d][7]annulen-5-ylidene)propyl)(methyl)amino)-3-hydroxypropanamide]	25	25	reduced tactile allodynia; also recorded: showed antiallodynic properties			showed antiallodynic properties in the acute and late phases	reduced cold hyperalgesia in the acute phase
